Earlier results, collected in US20170027908A1, “Pharmaceutical Composition” (CIPLA Limited, priority 2011, published 2017).

Columns and labels:
[1] = in vivo
[2] = test system: airway hyperresponsiveness; settings: as compared to fluticasone propionate

- elimination half life [1]: 15.1 h
SMILES: C[C@@H]1C[C@H]2[C@@H]3C[C@H](F)C4=CC(=O)C=C[C@]4(C)[C@@]3(F)[C@@H](O)C[C@]2(C)[C@@]1(OC(=O)c1ccco1)C(=O)SCF [fluticasone furoate]
- prolonged protection against airway hyperresponsiveness [2]: up to 26 hours
